Target: Pyruvate dehydrogenase kinase (Homo sapiens, UniProt Q15119+Q15120+Q16654+Q15118)
Test: Binding affinity to pyruvate dehydrogenase kinase (unknown origin) by VER-00160364 probe based fluorescence polarization assay

Row | Compound | IC50
1 | C[C@H]1CCc2cc(-c3nc4ccccc4nc3C(F)(F)F)ccc2N1C(=O)c1ccc(O)cc1O | 100 nM
2 | COc1ccc(-c2ccc3c(c2)CC[C@H](C)N3C(=O)c2ccc(O)cc2O)c(Cl)c1 | 1000 nM
3 | C[C@H]1CCc2cc(-c3ccc(N4CCCC4)nn3)ccc2N1C(=O)c1ccc(O)cc1O | 100 nM
4 | Cc1nccn1-c1ccc(-c2ccc3c(c2)CC[C@H](C)N3C(=O)c2ccc(O)cc2O)nn1 | 100 nM
5 | C[C@H]1CCc2cc(-c3nc(-c4ccsc4)nc4ccccc34)ccc2N1C(=O)c1ccc(O)cc1O | 1000 nM
6 | C[C@H]1CCc2cc(-c3nc4ccc(Cl)cc4cc3CO)ccc2N1C(=O)c1ccc(O)cc1O | 100 nM
7 | C[C@H]1CCc2cc(-c3cc4cncnc4[nH]3)ccc2N1C(=O)c1ccc(O)cc1O | 10 nM
8 | C[C@H]1CCc2cc(-c3nncc4ccccc34)ccc2N1C(=O)c1ccc(O)cc1O | 100 nM
9 | C[C@H]1CCc2cc(-c3ncnc4ccc(Cl)cc34)ccc2N1C(=O)c1ccc(O)cc1O | 100 nM
10 | Cc1cc(S(=O)(=O)N2CCCC2)cnc1-c1ccc2c(c1)CC[C@H](C)N2C(=O)c1ccc(O)cc1O | 100 nM
11 | C[C@H]1CCc2cc(-c3nc4cc(Cl)ccc4o3)ccc2N1C(=O)c1ccc(O)cc1O | 10000 nM
12 | Cc1cc(S(=O)(=O)N(C)C)cnc1-c1ccc2c(c1)CC[C@H](C)N2C(=O)c1ccc(O)cc1O | 10 nM
13 | Cc1ccc(-c2ccc3c(c2)CC[C@H](C)N3C(=O)c2ccc(O)cc2O)c(Cl)c1 | 1000 nM
14 | C[C@H]1CCc2cc(-c3ccc(N)nn3)ccc2N1C(=O)c1ccc(O)cc1O | 100 nM
15 | Cc1cc(S(=O)(=O)NCc2ccccc2)cnc1-c1ccc2c(c1)CC[C@H](C)N2C(=O)c1ccc(O)cc1O | 10 nM
16 | C[C@H]1CCc2cc(-c3ccc(-n4ccnc4)nn3)ccc2N1C(=O)c1ccc(O)cc1O | 100 nM
17 | Cc1cn(-c2ccc(-c3ccc4c(c3)CC[C@H](C)N4C(=O)c3ccc(O)cc3O)nn2)cn1 | 100 nM
18 | CCOC(=O)c1nc(-c2ccc3c(c2)CC[C@H](C)N3C(=O)c2ccc(O)cc2O)c2ccccc2n1 | 100 nM

Row | Compound | IC50
19 | COc1ccccc1-c1ccc2c(c1)CC[C@H](C)N2C(=O)c1ccc(O)cc1O | 100 nM
20 | CNc1nnc(-c2ccc3c(c2)CC[C@H](C)N3C(=O)c2ccc(O)cc2O)c2ccccc12 | 100 nM
21 | C[C@H]1CCc2cc(-c3cccc(C#N)c3)ccc2N1C(=O)c1ccc(O)cc1O | 1000 nM
22 | NC(=O)COc1ccc2c(c1)CCCN2C(=O)c1ccc(O)cc1O | 1000 nM
23 | C[C@H]1CCc2cc(-c3nc4ccccc4cc3CO)ccc2N1C(=O)c1ccc(O)cc1O | 100 nM
24 | C[C@H]1CCc2cc(-c3ccccc3Cl)ccc2N1C(=O)c1ccc(O)cc1O | 1000 nM
25 | Cc1nc(NS(C)(=O)=O)ccc1-c1ccc2c(c1)CC[C@H](C)N2C(=O)c1ccc(O)cc1O | 100 nM
26 | Cc1cc(S(=O)(=O)NCc2ccn(C)n2)cnc1-c1ccc2c(c1)CC[C@H](C)N2C(=O)c1ccc(O)cc1O | 100 nM
27 | Cc1ccc(C)c(-c2ccc3c(c2)CC[C@H](C)N3C(=O)c2ccc(O)cc2O)n1 | 100 nM
28 | Cc1cc(-c2ccc3c(c2)CC[C@H](C)N3C(=O)c2ccc(O)cc2O)cnc1N | 100 nM
29 | Cc1cc(S(=O)(=O)N2CCCCC2)cnc1-c1ccc2c(c1)CC[C@H](C)N2C(=O)c1ccc(O)cc1O | 10 nM
30 | C[C@H]1CCc2cc(-c3ccc(Cl)cc3Cl)ccc2N1C(=O)c1ccc(O)cc1O | 1000 nM
31 | COc1ccc(OC)c(-c2ccc3c(c2)CC[C@H](C)N3C(=O)c2ccc(O)cc2O)c1 | 1000 nM
32 | C[C@H]1CCc2cc(-c3ccc(NC4CC4)nn3)ccc2N1C(=O)c1ccc(O)cc1O | 1000 nM
33 | Cc1ncc(C)c(-c2ccc3c(c2)CC[C@H](C)N3C(=O)c2ccc(O)cc2O)n1 | 10 nM
34 | C[C@H]1CCc2cc(-c3ccc(N4CCOCC4)nn3)ccc2N1C(=O)c1ccc(O)cc1O | 1000 nM
35 | Cc1cc(S(=O)(=O)NCCN(C)C)cnc1-c1ccc2c(c1)CC[C@H](C)N2C(=O)c1ccc(O)cc1O | 10 nM

Source: ChEMBL document CHEMBL3714766, “Tetrahydroisoquinoline compounds and their use as pyruvate dehydrogenase kinase inhibitors” (2015)
